Values after ≈ are worked out from the molar mass of the structure shown. Read-outs that look alike come from different tables or passages of the source.
Experiments:
[1] = Solvent screen for dissolution of crystalline Compound A; type: physicochemical
Experimental: A screen was conducted to determine the optimum solvent for use purifying Compound A and for dissolution of crystalline Compound A prior to spray drying.

[2] = Membrane flux experiment (donor/receiver compartments, SIF bile salts)
Experimental: A membrane flux experiment was conducted in which a fixed amount of compound was introduced into the donor compartment at various concentrations of the SIF bile salts, and appearance of drug was monitored on the receiver side.

[3] = Rat pharmacokinetic studies with solutions and spray-dried dispersions; conditions: rats; solutions containing solubilizers and precipitation inhibitors
[4] = pH-Solubility Profile in buffers and simulated intestinal fluids; type: physicochemical; conditions: read-out: pH-Solubility Profile, Concentration
Experimental: This batch was prepared for use in the 28-day good laboratory practice (GLP) toxicology studies using the same synthetic scheme and processing employed in preparation of active pharmaceutical ingredient (API) to be used in the clinical drug product.

**Q.** Which results are given for `N#Cc1ccc(O[C@H]2CC[C@H](NC(=O)c3ccc(N4CCC(CN5CCN(c6cc7c(cc6F)C(=O)N(C6CCC(=O)NC6=O)C7=O)CC5)CC4)nn3)CC2)cc1Cl` (stereo partly shown) [Compound A, N-[(1r,4r)-4-(3-chloro-4-cyanophenoxy)cyclohexyl]-6-[4-({4-[2-(2,6-dioxopiperidin-3-yl)-6-fluoro-1,3-dioxo-2,3-dihydro-1H-isoindol-5-yl]piperazin-1-yl}methyl)piperidin-1-yl]pyridazine-3-carboxamide]?
**A.** Dissolution ([1]; DCM:Acetone, 53:47% wt., Solids 0.82 wt %, RT): Not dissolved; Dissolution ([1]; DCM:Ethanol, 92:8% wt., Solids 2.26 wt %, RT): Dissolved; Dissolution ([1]; DCM:Methanol, 70:30% wt., Solids 3.2 wt %, RT): Turbid solution; Dissolution ([1]; DCM:Methanol, 80:20% wt., Solids 3.4 wt %, RT): Dissolved; Dissolution ([1]; DCM:Methanol, 90:10% wt., Solids 5 wt %, RT): Dissolved; Dissolution ([1]; DCM:Methanol, 90:10% wt., Solids 6.6 wt %, Temperature 30): Dissolved; Dissolution ([1]; DCM:Methanol, 90:10% wt., Solids 8.1 wt %, Temperature 35): Dissolved; Dissolution ([1]; DCM:Methanol, 95:5 wt. %., Solids 4.2 wt %, RT): Dissolved; Dissolution ([1]; DCM, Solids 0.6 wt %, RT): Not dissolved; Dissolution ([1]; Methanol, Solids 2.8 wt %, RT): Not dissolved; Dissolution ([1]; THF, Solids 0.7 wt %, RT): Not dissolved; Flux (μg-min^−1-cm^−2) ([2]; SIF 0 mg/mL): 0.02 μg-min^−1-cm^−2; Flux (μg-min^−1-cm^−2) ([2]; SIF 5 mg/mL): 0.09 μg-min^−1-cm^−2; Flux (μg-min^−1-cm^−2) ([2]; SIF 10 mg/mL): 0.14 μg-min^−1-cm^−2; Flux (μg-min^−1-cm^−2) ([2]; SIF 20 mg/mL): 0.20 μg-min^−1-cm^−2; exposure versus dose [3]: Dose-linear exposure escalation; solubility ([4]; aqueous buffer, pH 3 200 mM citrate buffer, pH of solution 3.0): 15 µg/mL (≈ 18.5 µM); solubility ([4]; aqueous buffer, pH 5 200 mM citrate buffer, pH of solution 5.0): 0.5 µg/mL (≈ 0.616 µM); solubility ([4]; aqueous buffer, pH 6.5 200 mM citrate buffer, pH of solution 6.5): 0.3 µg/mL (≈ 0.369 µM); solubility ([4]; pH 5, fessif, Fed state simulated intestinal fluid, pH of solution 5.0): 22 µg/mL (≈ 27.1 µM); solubility ([4]; pH 6.5, fassif, Fasted state simulated intestinal fluid, pH of solution 6.5): 1 µg/mL (≈ 1.23 µM); solubility ([4]; simulated gastric fluid, pH 1.2 HCl (aq), pH of solution 1.2): 397 µg/mL (≈ 489 µM)

From patent US12043612B2, “Methods of manufacturing a bifunctional compound, ultrapure forms of the bifunctional compound, and dosage forms comprising the same” (Arvinas Operations, Inc., priority 2020, dated 2024)
